Measured values reported in the NIST ThermoML archive (doi:10.1021/acs.jced.9b00449).
Numbers after ± are expanded uncertainties.

Test: mn = molality of the nth substance listed, in mol/kg
Settings: 100 kPa, Liquid; for kinematic viscosity: Capillary tube (Ostwald / Ubbelohde) method; for mass density: Pycnometric method

[K+].[O]=[V](=[O])[O-] [potassium vanadate] + O
Settings | kinematic viscosity [m2/s] | mass density [kg/m3]
293.15 K, m1 = 0.615 | 1.03e-06 ± 1.2e-08 | 1063 ± 11
303.15 K, m1 = 0.874 | 8.5e-07 ± 4e-08 | 1083 ± 16
313.15 K, m1 = 1.223 | 7.51e-07 ± 2e-08 | 1126 ± 11
323.15 K, m1 = 1.884 | 7.42e-07 ± 3.6e-08 | 1171 ± 12
